{
  "source": "patent US7847152B2",
  "about": "“Use of tryptophan indole and anthranilate analogs as plant transformation selection agents” (The Board of Trustees of the University of Illinois, priority 2006, dated 2010)",
  "data": [
    {"system": "tobacco shoot producing leaf discs", "experiment": "Discrimination between wild type and ASA2 expressing tobacco shoot producing leaf discs", "format": "cell-based", "details": "not given", "procedure": "Various concentrations of the different analogs were tested on maize, soy bean, and tobacco that includes growth inhibition test of germination, leaf callus formation test, and other growth inhibition tests (FIGS. 15-38).\nLeaf callus/shoot formation was studied on Tobacco Regeneration Medium that was MS basal medium with 88 μM 6-benzyladenine (BA) and 0.5 μM naphthalene acetic acid (NAA) and various concentrations of different Trp and indole analogs using a total of 30 leaf discs (6 mm each in diameter) from either the untransformed wild type (WT) tobacco or the ASA2 expressing transgenic line transformed with pAST-IV vector (line ASTIV) at 28° C. under fluorescent light as described above. Callus formation and shoot production was visually evaluated after 2, 4 and 6 weeks. Seedling growth inhibition was studied as described herein.", "values": [
      {"smiles": "Nc1ccc(F)cc1C(=O)O", "note": "[5FA]", "concentration for discriminating between wild type and ASA2 expressing tobacco shoot producing leaf discs": "5FA 150 μM"},
      {"smiles": "COc1cccc2cc[nH]c12", "note": "[7MI, 7-Methoxyindole]", "concentration for discriminating between wild type and ASA2 expressing tobacco shoot producing leaf discs": "7MI 1000 μM"},
      {"smiles": "CC(=O)c1c[nH]c2ccccc12", "note": "[3-acetylI]", "concentration for discriminating between wild type and ASA2 expressing tobacco shoot producing leaf discs": "3-acetylI 500 μM"},
      {"smiles": "COc1ccc2[nH]ccc2c1", "note": "[5MI, 5-Methoxyindole]", "concentration for discriminating between wild type and ASA2 expressing tobacco shoot producing leaf discs": "5MI 1000 μM"},
      {"smiles": "Cc1ccc(N)c(C(=O)O)c1", "note": "[5MA, 5-methylanthranilate]", "concentration for discriminating between wild type and ASA2 expressing tobacco shoot producing leaf discs": "5MA 800 μM"},
      {"smiles": "Cc1cccc(N)c1C(=O)O", "note": "[6MA, 6-methylanthranilate]", "concentration for discriminating between wild type and ASA2 expressing tobacco shoot producing leaf discs": "6MA 70 μM"}
    ]},
    {"system": "Arabidopsis germinating seedlings", "experiment": "Discrimination between wild type and ASA2 expressing Arabidopsis germinating seedlings", "format": "in vivo", "details": "Arabidopsis seeds", "values": [
      {"smiles": "Cc1cccc2[nH]cc(C[C@H](N)C(=O)O)c12", "note": "[4MT, 4-methyltrypthophan]", "concentration for discriminating between wild type and ASA2 expressing Arabidopsis germinating seedlings": "4MT 70 μM"},
      {"smiles": "C[C@](N)(Cc1c[nH]c2ccccc12)C(=O)O", "note": "[α-MT, α- methyltrypthophan]", "concentration for discriminating between wild type and ASA2 expressing Arabidopsis germinating seedlings": "α-MT 20 μM"},
      {"smiles": "Fc1cccc2[nH]ccc12", "note": "[4FI, 4-Fluoroindole]", "concentration for discriminating between wild type and ASA2 expressing Arabidopsis germinating seedlings": "4FI 70 μM"},
      {"smiles": "Fc1ccc2[nH]ccc2c1", "note": "[5FI, 5-Fluoroindole]", "concentration for discriminating between wild type and ASA2 expressing Arabidopsis germinating seedlings": "5FI 20 μM"},
      {"smiles": "Cc1ccc2[nH]cc(C[C@H](N)C(=O)O)c2c1", "note": "[5MT, 5-methyltrypthophan]", "concentration for discriminating between wild type and ASA2 expressing Arabidopsis germinating seedlings": "5MT 200 μM"},
      {"smiles": "N[C@@H](Cc1c[nH]c2ccc(O)cc12)C(=O)O", "note": "[5HT, 5-hydroxyl-L-tryptophan]", "concentration for discriminating between wild type and ASA2 expressing Arabidopsis germinating seedlings": "5HT 200 μM"}
    ]}
  ]
}
